The values that follow come from patent US20100261765A1, “MINERALOCORTICOID RECEPTOR MODULATORS” (priority 2007, published 2010).

Molecules are shown by their SMILES. Where two headings read alike, the source gives them in different places.

Data set [1] concerns the target T1, recombinant rhesus mineralocorticoid receptor (Macaca mulatta, UniProt A0A5F8ATS5).
T1 construct: made in house; host or cells: insect cells infected with recombinant baculovirus; clarified lysate used
T1 sequence (A0A5F8ATS5 1-984): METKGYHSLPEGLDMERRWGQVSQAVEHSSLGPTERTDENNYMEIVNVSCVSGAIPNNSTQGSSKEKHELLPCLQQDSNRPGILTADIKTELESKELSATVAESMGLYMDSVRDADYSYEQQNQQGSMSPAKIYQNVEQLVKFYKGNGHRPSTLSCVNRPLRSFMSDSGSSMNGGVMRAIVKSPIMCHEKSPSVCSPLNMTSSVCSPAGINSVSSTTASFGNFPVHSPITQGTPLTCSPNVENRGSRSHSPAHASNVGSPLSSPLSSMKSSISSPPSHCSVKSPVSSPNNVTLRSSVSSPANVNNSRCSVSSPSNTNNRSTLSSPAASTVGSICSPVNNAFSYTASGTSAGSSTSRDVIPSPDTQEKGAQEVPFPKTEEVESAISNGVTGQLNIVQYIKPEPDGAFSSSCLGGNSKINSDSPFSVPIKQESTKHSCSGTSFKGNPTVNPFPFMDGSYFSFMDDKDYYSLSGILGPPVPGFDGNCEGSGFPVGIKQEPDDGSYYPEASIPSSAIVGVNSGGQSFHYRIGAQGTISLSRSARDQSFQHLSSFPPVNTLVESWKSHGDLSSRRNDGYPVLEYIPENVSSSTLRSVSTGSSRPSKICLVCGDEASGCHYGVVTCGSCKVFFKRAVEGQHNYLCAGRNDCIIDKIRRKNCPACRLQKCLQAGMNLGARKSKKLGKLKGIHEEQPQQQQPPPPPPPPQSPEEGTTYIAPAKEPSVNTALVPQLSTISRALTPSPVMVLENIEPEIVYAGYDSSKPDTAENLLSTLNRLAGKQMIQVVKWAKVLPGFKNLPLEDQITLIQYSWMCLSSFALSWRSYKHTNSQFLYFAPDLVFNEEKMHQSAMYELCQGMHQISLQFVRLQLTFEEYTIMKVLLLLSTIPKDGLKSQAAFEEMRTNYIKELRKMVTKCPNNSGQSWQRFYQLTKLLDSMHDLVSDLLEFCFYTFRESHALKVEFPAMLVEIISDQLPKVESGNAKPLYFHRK
The data set is described as follows: Mineralocorticoid receptor binding affinity, [3H]-aldosterone filter binding assay. As for the experimental part:
Measurement of Mineralocorticoid Receptor Binding Affinity
The binding affinity of compounds for the mineralocorticoid receptor was determined by measuring their ability to prevent binding of radiolabeled aldosterone to recombinant rhesus mineralocorticoid receptor in a traditional filter binding assay protocol.
Rhesus mineralocorticoid receptor cDNA was cloned from a cDNA library using and used to prepare a recombinant baculovirus encoding the rhesus mineralocorticoid receptor coding sequence by standard molecular biological and cell biological methods. […] Cells were collected and lysed. The lysates were clarified by centrifugation and stored at −80 C until use in the radioligand binding assay.
[^3H]-Aldosterone (1 mCi/ml, 70-100 Ci/mmol) was purchased from Perkin Elmer (NET419). Test compounds were dissolved in DMSO and diluted in DMSO to 50 times the desired final concentrations for 3-fold serial dilution dose response curves. […] The insect cell lysate containing rhesus mineralocorticoid receptor was thawed and diluted to 0.7 mg protein/mL. Assay were started by combining 20 μL of test compound solution, 920 μL of diluted insect cell lysate, and 60 μL of [^3H]-aldosterone working solution in 2-mL 96-well polypropylene square well plates (USA Scientific) at 20° C. The mixture was incubated for 3 hr with continuous agitation on a platform shaker. […] The filter plate was washed 3 times with 0.5 mL of 50 mM Tris-HCl, pH 7.4 and then dried overnight at 37° C. in a vacuum oven. […] Non-specific radioligand binding was determined by adding non-radiolabeled aldosterone (0.5 mM in DMSO) to the assay mixture to a final concentration of 10 μM in place of test compound. IC50 and Ki values were determined using a four parameter logistic fit using a customized assay data analyzer software package.

Data set [2] deals with T2, Cav1.2 (Homo sapiens, UniProt Q13936).
T2 construct: expressed in transfected cells; host or cells: HEK293 cell line (Xia, et al., 2004) also expressing Kir2.3
Briefly: Calcium channel block, FLIPR TETRA fluorescence assay in HEK293 cells expressing L-type calcium channels. As to conditions: pH 7.2, 25 mM potassium; for inhibition at 30 min, 0.3 μM: 0.3 μM compound, read-out: FLIPRIETRA Cav1.2 % Inhibition 0.3 μM; for inhibition at 30 min, 1 μM: 1 μm compound, read-out: FLIPRIETRA Cav1.2 % Inhibition 1 μm; for inhibition at 30 min, 3 μM: 3 μm compound, read-out: FLIPRIETRA Cav1.2 % Inhibition 3 μm; for inhibition at 30 min, 10 μM: 10 μm compound, read-out: FLIPRIETRA Cav1.2 % Inhibition 10 μm. The format is cell-based. As for the experimental part: Measurement of Calcium Channel Block
A high-throughput fluorescence assay for state-dependent block of L-type channels was established as a counterscreen for blockers of N-type calcium channels. […] This allows the cell membrane potential to be preset during compound incubation, which can be used to assay state-dependent channel block. Running the assay in the presence of high potassium (25 mM) sets the membrane potential to a value (−35 mV) at which approximately half of the calcium channels are inactivated and some are open. This condition favors block by many L-type calcium channel blockers that lower blood pressure, including dihydropyridines, phenylalkylamines and benzothiazepines.
Initially, the compounds were incubated in 0.005 μM calcium and 25 mM potassium for 30 minutes. Calcium influx was triggered by buffer addition that raises the calcium concentration to 2 mM while maintaining the potassium concentration at 25 mM. Changes in intracellular calcium were then monitored using a calcium-sensitive fluorescent dye (fluo-4) and a FLIPR^TETRA plate reader.
The following experimental protocol was used:
1. Cells were seeded in a Poly-D-Lysine Coated 384-well plate (50 μl/well) and incubated overnight at 37° C. under 10% CO2;
4. Cells were then incubated in the dark at 25° C. for 30 minutes;
5. […] 25 mM KCl, 0.005 mM CaCl2, 1.7 mM MgCl2, 10 HEPES, pH=7.2;
6. 0.025 ml of 25 mM K PPB was then added, with or without the presence of a test compound;
7. Cells incubated in the dark at 25° C. for 30 min
8. Cell plates are then read on the FLIPR^TETRA instrument, Excitation=480 nm, Emission=535 nm;

Data set [3] concerns patients suffering from advanced CHF. As to conditions: in combination with standard CHF therapy; cited from earlier work.
Setting [4] is: average of Rep#1 and Rep#2, read-out: MRBIND Ki (nM) Average.
The mark [5] stands for this setting: replicate 1, read-out: MRBIND Ki (nM) Rep#1.
[6] abbreviates: replicate 2, read-out: MRBIND Ki (nM) Rep#2.

T2 sequence (Q13936 whole entry): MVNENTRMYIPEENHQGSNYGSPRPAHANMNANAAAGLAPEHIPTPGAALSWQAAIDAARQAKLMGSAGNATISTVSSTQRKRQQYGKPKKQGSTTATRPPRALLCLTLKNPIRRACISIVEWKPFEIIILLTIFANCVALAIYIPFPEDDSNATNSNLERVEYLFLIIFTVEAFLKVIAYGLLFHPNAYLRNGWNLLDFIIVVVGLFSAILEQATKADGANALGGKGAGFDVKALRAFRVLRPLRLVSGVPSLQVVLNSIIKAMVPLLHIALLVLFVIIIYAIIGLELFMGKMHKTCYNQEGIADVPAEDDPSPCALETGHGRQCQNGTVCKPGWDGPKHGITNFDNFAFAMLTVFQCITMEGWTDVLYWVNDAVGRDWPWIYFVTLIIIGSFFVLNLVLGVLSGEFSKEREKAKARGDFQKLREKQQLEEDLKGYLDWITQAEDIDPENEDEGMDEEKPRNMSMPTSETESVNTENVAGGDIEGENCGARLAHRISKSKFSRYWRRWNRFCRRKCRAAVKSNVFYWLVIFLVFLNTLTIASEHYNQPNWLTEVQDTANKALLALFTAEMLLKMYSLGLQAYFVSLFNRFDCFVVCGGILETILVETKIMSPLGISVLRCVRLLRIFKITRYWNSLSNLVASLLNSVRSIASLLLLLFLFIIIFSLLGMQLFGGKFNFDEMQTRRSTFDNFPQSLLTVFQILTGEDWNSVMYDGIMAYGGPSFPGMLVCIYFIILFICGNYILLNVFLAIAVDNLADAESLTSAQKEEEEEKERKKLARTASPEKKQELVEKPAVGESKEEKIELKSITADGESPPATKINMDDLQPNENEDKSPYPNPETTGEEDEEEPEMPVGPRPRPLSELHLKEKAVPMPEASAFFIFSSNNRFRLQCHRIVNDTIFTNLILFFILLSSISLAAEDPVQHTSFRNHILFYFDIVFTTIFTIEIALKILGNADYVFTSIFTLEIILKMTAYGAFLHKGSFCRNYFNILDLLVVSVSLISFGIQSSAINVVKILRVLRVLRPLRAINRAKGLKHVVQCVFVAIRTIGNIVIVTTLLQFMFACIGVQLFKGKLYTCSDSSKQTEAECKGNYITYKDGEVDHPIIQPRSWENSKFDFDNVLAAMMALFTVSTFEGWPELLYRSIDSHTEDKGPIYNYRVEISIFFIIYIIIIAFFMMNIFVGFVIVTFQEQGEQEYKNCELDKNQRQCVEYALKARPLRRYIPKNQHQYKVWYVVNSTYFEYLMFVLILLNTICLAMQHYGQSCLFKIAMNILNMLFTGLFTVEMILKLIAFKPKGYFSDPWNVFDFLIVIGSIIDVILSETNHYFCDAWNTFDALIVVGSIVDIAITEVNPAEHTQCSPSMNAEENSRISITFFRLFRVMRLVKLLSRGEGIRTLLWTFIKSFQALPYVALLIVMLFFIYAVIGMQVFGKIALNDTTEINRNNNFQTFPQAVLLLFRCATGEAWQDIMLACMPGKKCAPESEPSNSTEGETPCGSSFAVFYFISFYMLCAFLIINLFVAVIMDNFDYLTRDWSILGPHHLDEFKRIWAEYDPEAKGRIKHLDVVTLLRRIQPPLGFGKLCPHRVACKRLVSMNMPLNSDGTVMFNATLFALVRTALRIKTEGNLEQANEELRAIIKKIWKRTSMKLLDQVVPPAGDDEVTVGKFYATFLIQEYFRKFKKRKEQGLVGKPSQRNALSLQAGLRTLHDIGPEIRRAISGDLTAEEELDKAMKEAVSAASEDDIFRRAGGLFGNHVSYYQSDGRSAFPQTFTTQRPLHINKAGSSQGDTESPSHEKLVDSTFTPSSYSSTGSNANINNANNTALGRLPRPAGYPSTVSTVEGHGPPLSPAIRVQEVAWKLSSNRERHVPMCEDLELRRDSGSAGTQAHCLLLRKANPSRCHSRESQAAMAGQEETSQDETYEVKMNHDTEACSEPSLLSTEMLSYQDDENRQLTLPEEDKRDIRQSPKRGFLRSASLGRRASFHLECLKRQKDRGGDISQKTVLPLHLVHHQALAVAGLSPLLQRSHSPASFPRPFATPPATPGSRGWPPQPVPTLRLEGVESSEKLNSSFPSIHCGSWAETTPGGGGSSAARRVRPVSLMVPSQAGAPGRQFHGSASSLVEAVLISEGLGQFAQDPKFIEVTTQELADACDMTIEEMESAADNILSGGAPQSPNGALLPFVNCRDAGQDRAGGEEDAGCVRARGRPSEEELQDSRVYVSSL
T2 sequence (P54289 25-946 partner limits assumed): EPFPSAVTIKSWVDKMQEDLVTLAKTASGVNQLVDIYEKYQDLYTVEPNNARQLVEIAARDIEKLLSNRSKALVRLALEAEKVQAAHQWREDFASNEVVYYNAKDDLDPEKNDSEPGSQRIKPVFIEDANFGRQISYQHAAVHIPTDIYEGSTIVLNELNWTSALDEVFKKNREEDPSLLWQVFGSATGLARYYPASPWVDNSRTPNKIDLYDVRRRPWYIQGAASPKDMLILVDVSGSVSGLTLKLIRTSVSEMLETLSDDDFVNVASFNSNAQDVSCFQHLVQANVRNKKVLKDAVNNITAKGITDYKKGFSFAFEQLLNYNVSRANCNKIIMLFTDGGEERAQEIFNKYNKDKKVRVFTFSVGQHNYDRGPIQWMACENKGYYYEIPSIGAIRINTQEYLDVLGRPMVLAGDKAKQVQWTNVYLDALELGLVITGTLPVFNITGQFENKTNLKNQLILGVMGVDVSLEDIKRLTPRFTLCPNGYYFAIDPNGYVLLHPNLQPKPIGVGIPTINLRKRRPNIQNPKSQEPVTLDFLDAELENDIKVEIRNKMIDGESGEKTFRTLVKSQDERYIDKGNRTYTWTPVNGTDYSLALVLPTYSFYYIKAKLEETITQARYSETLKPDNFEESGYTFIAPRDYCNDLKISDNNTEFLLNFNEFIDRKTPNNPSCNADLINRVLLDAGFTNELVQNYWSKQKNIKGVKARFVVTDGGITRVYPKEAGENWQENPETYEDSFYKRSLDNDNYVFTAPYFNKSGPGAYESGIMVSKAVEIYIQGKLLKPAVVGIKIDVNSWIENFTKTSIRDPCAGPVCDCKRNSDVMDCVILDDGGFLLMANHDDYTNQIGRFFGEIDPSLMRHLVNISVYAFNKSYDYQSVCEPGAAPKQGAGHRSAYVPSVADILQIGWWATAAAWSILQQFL
T2 sequence (P54289 947-1103 partner limits assumed): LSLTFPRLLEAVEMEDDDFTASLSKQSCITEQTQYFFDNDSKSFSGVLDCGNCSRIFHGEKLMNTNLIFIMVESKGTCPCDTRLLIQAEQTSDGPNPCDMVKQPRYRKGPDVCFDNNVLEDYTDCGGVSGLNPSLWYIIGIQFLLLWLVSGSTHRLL
T2 sequence (Q08289 whole entry partner): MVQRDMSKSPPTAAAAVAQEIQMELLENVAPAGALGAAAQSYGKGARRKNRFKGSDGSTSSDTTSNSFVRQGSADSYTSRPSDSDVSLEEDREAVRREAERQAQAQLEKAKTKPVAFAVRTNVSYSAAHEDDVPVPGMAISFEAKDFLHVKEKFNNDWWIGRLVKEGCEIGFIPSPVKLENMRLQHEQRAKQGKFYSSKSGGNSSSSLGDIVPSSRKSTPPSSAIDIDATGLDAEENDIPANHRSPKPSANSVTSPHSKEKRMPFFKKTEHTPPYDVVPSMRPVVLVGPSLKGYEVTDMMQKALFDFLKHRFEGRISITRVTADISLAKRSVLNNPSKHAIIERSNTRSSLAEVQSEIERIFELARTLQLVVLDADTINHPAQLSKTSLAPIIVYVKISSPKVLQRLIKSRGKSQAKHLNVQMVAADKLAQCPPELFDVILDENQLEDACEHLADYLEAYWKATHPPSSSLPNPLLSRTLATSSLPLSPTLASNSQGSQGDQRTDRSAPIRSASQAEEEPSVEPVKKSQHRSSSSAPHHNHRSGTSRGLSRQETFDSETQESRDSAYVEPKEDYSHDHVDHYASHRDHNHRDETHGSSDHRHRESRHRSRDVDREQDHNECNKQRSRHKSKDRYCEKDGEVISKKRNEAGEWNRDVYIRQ

Consider `CCCC1=C(C(=O)OCC)C(c2ccccc2Cl)C(C#N)=C(SC)N1` (centres unmarked) [ethyl 4-(2-chlorophenyl)-5-cyano-6-(methylthio)-2-propyl-1,4-dihydropyridine-3-carboxylate], for which the Ki (as a rule, a dissociation constant, usually derived from enzyme kinetics or from competition with a known ligand) in data set [1] (setting [4]) is 37.3 nM. In data set [1] (setting [5]), the Ki stood at 23.6 nM. Also, the Ki in data set [1] (setting [6]) is 51 nM. Moreover, in data set [2], the inhibition (commonly the percentage by which the read-out fell short of the control) at 30 min, 0.3 μM was found to be 53%; the inhibition at 30 min, 1 μM worked out at 73%; the inhibition at 30 min, 3 μM amounted to 74%; the inhibition at 30 min, 10 μM stood at 80%.

Take `CCOC(=O)C1=C(C)NC(C)=C(C(=O)OC(C)C)C1c1ccc([N+](=O)[O-])cc1` (centres unmarked) [ethyl isopropyl 2,6-dimethyl-4-(4-nitrophenyl)-1,4-dihydropyridine-3,5-dicarboxylate]: the Ki in data set [1] (setting [4]) worked out at 114 nM. The Ki in data set [1] (setting [5]) is 77 nM. Besides, the Ki in data set [1] (setting [6]) is 152 nM. In addition, in data set [2], the inhibition at 30 min, 0.3 μM was determined as 28%; the inhibition at 30 min, 1 μM is 49%; the inhibition at 30 min, 3 μM turned out to be 63%; the inhibition at 30 min, 10 μM came to 73%. For the same compound, the inhibition at 30 min, 30 μM in data set [2] (30 μm compound, read-out: FLIPRIETRA Cav1.2 % Inhibition 30 μm) stood at 86%.

As for `CC(=O)S[C@@H]1CC2=CC(=O)CC[C@]2(C)[C@H]2CC[C@@]3(C)[C@@H](CC[C@@]34CCC(=O)O4)[C@H]12` [spironolactone], in data set [3], the “reduction of cardiac related mortality” value is recorded as 30% and the “reduction of frequency of hospitalization” value is 33%.
